# Measurements published in paper PMC7377474, “Preclinical characterization of CPL302-253, a selective inhibitor of PI3Kδ, as the candidate for the inhalatory treatment and prevention of Asthma” (PLoS ONE, 2020).
# Several values for one entry are separate records, joined by “and”; a condition that tells them apart may be missing. Equal values may be shown once.
# How the values were obtained:
# [1] = Pharmacokinetics after intratracheal instillation; assay type: in vivo; details: mouse
# Procedure: Female Balb/c mouse (20–25 g bodyweight) were purchased from Nofer Institute (Lodz, Poland). Animals were given 0.3 mg/kg or 1 mg/kg single dose of CPL302-253 by intratracheal instillation. The compound was suspended in 0.2% DMSO in saline. 5 animals per time-point were sacrificed 10 min, 30 min, 1 h, 2 h, 4 h, 7 h and 12 h after compound administration. The blood was collected by heart puncture to K2EDTA containing tubes and plasma samples were prepared by centrifugation. The Bronchoalveolar Lavage Fluid (BALF) was collected by flushing the lungs 2 times with 1 ml of saline. The lungs were homogenized in 10% DMSO solution in water. 3ml of the solution were used for 1 g of lung tissue. The samples were purified using acetonitrile and concentration of CPL302-253 was measured by LC-MS/MS with internal standard. The concentration of the compound is given per ml of plasma and BALF or g of lung tissue.
# LC-MS analysis of PK samples was performed using 1290 Infinity II UPLC (Agilent) with 6460 Triple Quad MS (Agilent) in the positive mode and MRM mode. […] Samples were eluted using a timed, linear gradient from 10% B at 0.3 min to 95% B at 1.5 min, then back to 10% at 2.5 min. The column was equilibrated for up to 5 min. The flow rate was 0.4 mL/min. The injection volume was 5 μL. Calibration curve was prepared in the range from 1 ng/mL to 2000 ng/mL by spiking 45 μL of plasma with 5 μL of concentrated standard solution. All plasma based standard solutions and studied samples (50 μL) were subsequently extracted with 150 μL of acetonitrile containing donepezil as internal standard and centrifuged to provide supernatant ready for analysis.
# PI3Kγ [2] = biological target: T1, PI3Kγ (Homo sapiens, UniProt P48736); test: KINOMEScan competitive binding assay, Kd; design: purchased Discoverex (KINOMEscan service)
# Procedure: (§1) The inhibitor-kinase binding affinity was assessed in KINOMEscan™ assay (Discoverex) according to service provider’s protocol. In brief, in this binding assay the studied compound in solution is incubated with DNA-tagged kinase and kinase active-site directed ligand bound to the beads. The compound competes for binding to kinase with the immobilized ligand. After incubation beads are removed from the solution and kinase bound to ligand is quantified by qPCR. The strength of compound binding is determined based on its ability to block kinase-ligand binding. 11-point 3-fold serial dilution of CPL302-253 was used in order to determine its binding constants (Kd) against different isotypes of class I PI3K. The single concentration of CPL302-253 was used in order to determine its specificity in abroad panel of 468 human kinases. The measure of compounds affinity to each kinase in the panel was the percentage of kinase activity inhibition by tested ligand in comparison to the control.
# PI3Kα [3] = biological target: T2, PI3Kα (Homo sapiens, UniProt P42336); test: KINOMEScan competitive binding assay, Kd; design: purchased Discoverex (KINOMEscan service)
# Procedure: as §1
# Target sequence in this assay (P42336 whole entry): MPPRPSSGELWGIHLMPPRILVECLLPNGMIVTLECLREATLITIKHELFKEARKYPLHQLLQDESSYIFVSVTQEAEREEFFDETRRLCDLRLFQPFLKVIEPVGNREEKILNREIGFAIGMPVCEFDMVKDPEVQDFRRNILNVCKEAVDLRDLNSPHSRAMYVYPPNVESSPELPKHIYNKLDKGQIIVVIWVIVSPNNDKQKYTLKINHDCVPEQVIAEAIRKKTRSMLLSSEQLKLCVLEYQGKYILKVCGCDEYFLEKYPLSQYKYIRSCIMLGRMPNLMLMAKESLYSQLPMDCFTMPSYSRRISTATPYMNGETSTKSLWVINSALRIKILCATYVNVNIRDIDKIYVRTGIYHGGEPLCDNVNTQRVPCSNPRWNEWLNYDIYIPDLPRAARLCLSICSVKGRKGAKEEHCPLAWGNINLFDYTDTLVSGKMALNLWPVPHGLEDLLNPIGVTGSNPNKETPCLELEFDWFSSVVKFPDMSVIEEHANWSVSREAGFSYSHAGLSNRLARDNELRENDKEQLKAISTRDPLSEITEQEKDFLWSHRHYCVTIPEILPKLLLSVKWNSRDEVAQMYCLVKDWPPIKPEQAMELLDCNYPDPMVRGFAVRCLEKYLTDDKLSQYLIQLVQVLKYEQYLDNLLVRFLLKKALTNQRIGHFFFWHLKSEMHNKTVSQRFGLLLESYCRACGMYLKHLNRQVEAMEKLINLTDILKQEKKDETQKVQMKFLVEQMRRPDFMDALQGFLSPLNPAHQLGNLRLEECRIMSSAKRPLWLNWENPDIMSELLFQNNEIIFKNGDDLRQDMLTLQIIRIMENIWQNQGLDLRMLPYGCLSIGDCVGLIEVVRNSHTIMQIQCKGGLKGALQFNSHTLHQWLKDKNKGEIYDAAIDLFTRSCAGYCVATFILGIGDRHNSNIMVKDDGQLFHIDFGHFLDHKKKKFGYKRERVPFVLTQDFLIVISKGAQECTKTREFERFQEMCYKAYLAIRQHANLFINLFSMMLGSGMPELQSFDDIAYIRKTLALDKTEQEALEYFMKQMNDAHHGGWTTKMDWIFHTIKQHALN
# PI3Kβ = PI3Kβ (Homo sapiens, UniProt P42338); test: ADP-Glo Kinase Assay; assay type: biochemical; design: purchased Merck Millipore
# Procedure: (§2) The potency and selectivity of CPL302-253 against different isotypes of class I PI3K were assessed using ADP-Glo Kinase Assay (Promega) according to manufacturer’s protocol. PI3Kα, PI3Kβ, PI3Kδ, PI3Kγ were purchased from Merck Millipore. The inhibition of examined kinases activity was evaluated by measuring their ability to converse ATP to ADP in the presence of decreasing doses of tested compound (from 400 μM to 0,00004 μM). Kinases were mixed with 1 mM PIP2:PS substrate (Phosphoinositol-4,5-bisphosphate (PIP2) lipid vesicles with phosphoserine (PS), Thermofisher Scientific) and 30 μM ATP in an assay buffer (50 mM HEPES pH 7.5,50 mM NaCl, 3 mM MgCl2, 25 μg/ml BSA). The mixture was incubated in the dark for 1 h at 25°C (PI3Kα and PI3Kδ) or at 30°C (PI3Kβ, PI3Kγ). Next ADP-Glo reagent 1 was added to stop the reaction and remove any remaining ATP. The samples were incubated for 40 min at 25°C. Subsequently the ADP-Glo reagent 2 was added and reactions were incubated for 40 min at 25°C. Finally, luminescence was assessed and the IC50 was calculated.
# PI3Kγ [4] = biological target: T1, PI3Kγ; test: ADP-Glo Kinase Assay; assay type: biochemical; design: purchased Merck Millipore
# Procedure: as §2
# PI3Kα [5] = biological target: T2, PI3Kα; test: ADP-Glo Kinase Assay; assay type: biochemical; design: purchased Merck Millipore
# Procedure: as §2
# Target sequence in this assay (P42336 whole entry): as above
# Target sequence in this assay (P27986 whole entry partner): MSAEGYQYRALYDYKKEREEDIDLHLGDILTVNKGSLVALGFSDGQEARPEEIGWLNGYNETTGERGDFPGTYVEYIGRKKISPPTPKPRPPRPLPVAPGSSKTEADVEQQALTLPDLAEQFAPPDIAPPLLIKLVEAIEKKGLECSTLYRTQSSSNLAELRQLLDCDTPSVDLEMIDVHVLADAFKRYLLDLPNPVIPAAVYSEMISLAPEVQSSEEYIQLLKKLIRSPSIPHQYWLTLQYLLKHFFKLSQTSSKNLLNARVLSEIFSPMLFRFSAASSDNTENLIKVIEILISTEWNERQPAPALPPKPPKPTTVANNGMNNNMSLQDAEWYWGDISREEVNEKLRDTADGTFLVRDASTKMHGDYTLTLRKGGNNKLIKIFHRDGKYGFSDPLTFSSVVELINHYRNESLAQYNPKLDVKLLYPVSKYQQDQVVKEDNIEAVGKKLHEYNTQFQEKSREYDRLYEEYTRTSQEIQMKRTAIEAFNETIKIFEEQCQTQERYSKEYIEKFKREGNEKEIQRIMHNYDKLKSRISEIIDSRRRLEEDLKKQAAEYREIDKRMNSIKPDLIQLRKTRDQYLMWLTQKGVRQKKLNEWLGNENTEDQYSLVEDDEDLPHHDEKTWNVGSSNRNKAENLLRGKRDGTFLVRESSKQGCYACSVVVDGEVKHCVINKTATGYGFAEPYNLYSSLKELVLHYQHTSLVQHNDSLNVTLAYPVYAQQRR
# [6] = test system: Normal Human Bronchial Epithelial (NHBE) cells; test: in vitro; assay type: cell-based; details: 48 h
# Procedure: The study was performed by Cyprotex according to service provider’s protocol. In brief NHBE cells were plated on 96-well plate. The cells were dosed with test compound at 0.0457, 0.137, 0.412, 1.24, 3.7, 11.1, 33.3, 100 μM and incubated for 48 h. The cells were loaded with dye or antibody relevant for each health marker and scanned using fluorescent cell imager. The following parameters were studied: cell count, nuclear size, DNA structure, mitochondrial mass, mitochondrial membrane potential, oxidative stress, glutathione content. The baseline for each parameter was determined based on vehicle control sample. The software calculates the percentage of cells that are low or high responders (depending on the biological significance of a particular readout). The vehicle control wells are then used to determine significance limits for wells that have a greater than expected fraction of low or high responders. The minimum effective concentration was determined from the lowest concentration whose mean value exceeds the significance level and provided either a clear dose-response relationship or at least two consecutive concentration points past the significance level.
# CD8 T cells = test: CD8 T cell activation, IFNγ production; assay type: cell-based, human; details: for IFNγ release (Fig 3C), single replicates: activated CD8 T cells, 48 h
# Procedure: CD8 T cells were isolated from human frozen PBMC using EasySep Human CD8 T cell Isolation Kit (StemCell Technologies) according to manufacturer’s protocol and cultured in AIM V medium (Gibco). To cell culture different concentrations of CPL302-253 were added. The cells were activated with Human T Cell Activation/Expansion Kit (Miltenyibiotec) according to manufacturer’s protocol. IFNγ production was measured after 48 h of activation in culture supernatants using IFNγ Human Uncoated ELISA Kit (Invitrogen) according to manufacturer’s protocol.
# T1 sequence (P48736 whole entry): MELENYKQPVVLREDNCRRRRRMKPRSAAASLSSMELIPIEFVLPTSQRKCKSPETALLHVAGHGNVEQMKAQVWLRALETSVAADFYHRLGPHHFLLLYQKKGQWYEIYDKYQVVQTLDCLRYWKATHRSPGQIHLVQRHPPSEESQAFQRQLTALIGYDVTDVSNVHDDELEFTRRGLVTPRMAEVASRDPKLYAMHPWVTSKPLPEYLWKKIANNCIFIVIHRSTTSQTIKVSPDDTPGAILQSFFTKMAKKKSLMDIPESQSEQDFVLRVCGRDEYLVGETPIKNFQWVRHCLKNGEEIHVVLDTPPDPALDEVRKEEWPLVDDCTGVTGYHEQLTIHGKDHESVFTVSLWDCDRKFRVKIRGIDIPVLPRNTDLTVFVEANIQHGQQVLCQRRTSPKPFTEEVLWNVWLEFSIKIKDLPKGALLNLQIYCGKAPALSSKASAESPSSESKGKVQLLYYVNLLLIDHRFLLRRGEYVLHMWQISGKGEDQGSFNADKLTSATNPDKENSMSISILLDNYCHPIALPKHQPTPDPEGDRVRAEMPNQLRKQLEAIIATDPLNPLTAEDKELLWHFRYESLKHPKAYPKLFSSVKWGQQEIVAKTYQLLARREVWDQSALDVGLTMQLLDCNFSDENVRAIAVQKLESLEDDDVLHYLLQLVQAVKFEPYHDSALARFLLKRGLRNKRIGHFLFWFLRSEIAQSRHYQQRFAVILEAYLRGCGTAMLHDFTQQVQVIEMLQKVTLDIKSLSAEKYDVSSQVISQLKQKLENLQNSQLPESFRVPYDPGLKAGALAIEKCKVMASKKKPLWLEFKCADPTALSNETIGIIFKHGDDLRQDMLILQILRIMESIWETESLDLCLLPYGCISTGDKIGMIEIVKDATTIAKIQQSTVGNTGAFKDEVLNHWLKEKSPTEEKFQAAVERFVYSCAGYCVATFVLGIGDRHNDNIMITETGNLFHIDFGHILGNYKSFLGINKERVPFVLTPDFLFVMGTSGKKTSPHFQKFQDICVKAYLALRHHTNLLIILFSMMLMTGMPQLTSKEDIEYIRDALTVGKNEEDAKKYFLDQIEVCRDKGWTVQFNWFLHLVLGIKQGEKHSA
# Sequence of PI3Kβ (P42338 whole entry): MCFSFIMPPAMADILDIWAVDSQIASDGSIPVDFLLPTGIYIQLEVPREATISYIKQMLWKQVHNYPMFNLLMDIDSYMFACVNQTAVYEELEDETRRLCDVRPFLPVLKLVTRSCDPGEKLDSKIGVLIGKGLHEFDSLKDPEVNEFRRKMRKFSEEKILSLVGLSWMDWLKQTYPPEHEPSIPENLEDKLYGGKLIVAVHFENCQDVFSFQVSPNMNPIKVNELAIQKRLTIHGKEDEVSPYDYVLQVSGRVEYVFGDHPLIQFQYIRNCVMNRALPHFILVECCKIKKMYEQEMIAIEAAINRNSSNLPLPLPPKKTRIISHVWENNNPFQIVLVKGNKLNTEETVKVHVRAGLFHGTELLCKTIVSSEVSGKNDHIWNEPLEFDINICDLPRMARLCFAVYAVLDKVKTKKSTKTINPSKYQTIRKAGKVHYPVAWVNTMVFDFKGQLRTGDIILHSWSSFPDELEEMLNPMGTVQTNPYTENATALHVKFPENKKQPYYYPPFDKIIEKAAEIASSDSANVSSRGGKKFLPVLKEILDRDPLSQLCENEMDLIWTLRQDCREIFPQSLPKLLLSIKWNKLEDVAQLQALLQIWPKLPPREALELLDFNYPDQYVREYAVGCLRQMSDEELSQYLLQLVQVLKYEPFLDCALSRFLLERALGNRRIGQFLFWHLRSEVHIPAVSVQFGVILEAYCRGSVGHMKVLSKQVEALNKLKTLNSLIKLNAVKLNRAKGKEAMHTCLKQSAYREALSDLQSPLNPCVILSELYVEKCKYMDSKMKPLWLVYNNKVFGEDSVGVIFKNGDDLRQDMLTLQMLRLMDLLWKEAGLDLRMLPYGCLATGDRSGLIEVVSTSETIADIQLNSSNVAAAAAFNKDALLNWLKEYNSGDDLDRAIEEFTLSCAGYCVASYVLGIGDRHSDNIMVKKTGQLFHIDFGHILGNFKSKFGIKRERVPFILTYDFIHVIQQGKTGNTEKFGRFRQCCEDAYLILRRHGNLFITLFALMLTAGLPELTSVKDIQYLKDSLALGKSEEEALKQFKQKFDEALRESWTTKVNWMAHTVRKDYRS
# Sequence of PI3Kβ (P27986 whole entry partner): as the sequence (P27986 whole entry partner) above
compound,measurement,setting,value
CC(C)(C)N1CCN(Cc2cc3nc(-c4cncc5[nH]ccc45)cc(N4CCOCC4)n3n2)CC1 [CPL302-253],"concentration in Plasma, single animals","[1]; 0.3 mg/kg intratracheal, time 2 h",16.45
same,concentration in the blood compared with the lungs,[1]; in vivo,two orders of magnitude lower
same,distribution after intratracheal administration,[1]; in vivo,exclusively accumulated in the lung tissue and BAL with minor penetration to the circulation
same,Kd,PI3Kγ [2],4.8 µM
same,Kd,PI3Kα [3],1.9 µM
same,IC50,PI3Kβ,9.58 µM
same,Ratio to δ,PI3Kβ; IC50 of isoform β to δ,785
same,IC50,PI3Kγ [4],45.4 µM
same,Ratio to δ,PI3Kγ [4]; IC50 of isoform γ to δ,3725
same,IC50,PI3Kα [5],4.52 µM
same,Ratio to δ,PI3Kα [5]; IC50 of isoform α to δ,371
same,AC50,[6],> 100 µM
same,MEC Cell count,[6],50.6 µM
same,MEC DNA structure,[6],24.4 µM
same,MEC Glutathione content,[6],10.6 µM
same,MEC Mitochondrial mass,[6],20.8 µM
same,MEC Mitochondrial membrane potential,[6],22.8 µM
same,MEC Nuclear size,[6],75.3 µM
same,MEC Oxidative stress,[6],16.1 µM
same,lowest concentration influencing any cell health parameter,[6],≥ 10 µM
same,concentration at which IFNγ production was blocked,CD8 T cells; CD8 T cells after TCR engagement,1 nM
same,"IFNγ release (Fig 3C), single replicates",CD8 T cells; concentration 1 (unit not given),418.61 and 469.87 and 245.35
same,"IFNγ release (Fig 3C), single replicates",CD8 T cells; concentration 10 (unit not given),400.4 and 276.31 and 203.71
same,"IFNγ release (Fig 3C), single replicates",CD8 T cells; concentration 100 (unit not given),219.02 and 101.31 and 52.94
same,"IFNγ release (Fig 3C), single replicates","CD8 T cells; concentration 10000, first column (unit not printed)",55.96 and 7.95 and 23.25
same,"IFNγ release (Fig 3C), single replicates","CD8 T cells; concentration 10000, second column (unit not printed)",155.93 and 70.92 and 72.2
